Test results reported in US8030453B2, “Methods of making an antibody that binds a chemerin polypeptide” (Euroscreen S.A., priority 2001, dated 2011).
Peptide text beside a SMILES is read from it.

T1: human ChemerinR (ChemR23) expressed in CHO-K1 cells (Homo sapiens, UniProt Q99788)
T1 construct: This fragment was subcloned into the pcDNA3 (Invitrogen) vector; expressed in transfected cells; host or cells: CHO-K1 (co-expressing mitochondrial apoaequorin and Galpha16)
T1 sequence (Q99788 3-373): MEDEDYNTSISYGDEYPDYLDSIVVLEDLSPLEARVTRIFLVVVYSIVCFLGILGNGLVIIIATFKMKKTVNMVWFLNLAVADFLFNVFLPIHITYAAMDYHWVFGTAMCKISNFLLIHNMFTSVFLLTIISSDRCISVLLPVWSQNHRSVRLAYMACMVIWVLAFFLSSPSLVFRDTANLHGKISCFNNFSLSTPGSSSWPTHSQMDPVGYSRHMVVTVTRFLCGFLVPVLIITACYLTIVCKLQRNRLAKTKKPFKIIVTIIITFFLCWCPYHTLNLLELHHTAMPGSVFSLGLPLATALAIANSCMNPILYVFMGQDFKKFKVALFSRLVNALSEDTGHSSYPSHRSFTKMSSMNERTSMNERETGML

B1: truncated PreprocHEMERIN: 157 amino acid truncated Preprochemerin polypeptide (SEQ ID NO: 73, FIG. 16) (protein, listed as Homo sapiens)
chain: MRRLLIPLALWLGAVGVGVAELTEAQRRGLQVALEEFHKHPPVQWAFQETSVESAVDTPFPAGIFVRLEFKLQQTSCRKRDWKKPECKVRPNGRKRKCLACIKLGSEDKVLGRLVHCPIETQVLREAEEHQETQCLRVQRAGEDPHSFYFPGQFAFS

The molecules below were run against T1, human ChemerinR (ChemR23) expressed in CHO-K1 cells (assay: aequorin-based intracellular Ca2+ release assay). Settings: not given.
Assay type: cell-based
Experimental: Briefly, ChemerinR-expressing clones are transfected to coexpress mitochondrial apoaequorin and Gα16. Cells are incubated with 5 μM Coelenterazine H (Molecular Probes) for 4 hours at room temperature, washed in DMEM-F12 culture medium and resuspended at a concentration of 0.5×10^6 cells/ml. Cells are then mixed with test agonist peptides and light emission by the aequorin is recorded with a luminometer for 30 sec. Results are expressed as Relative Light Units (RLU). Controls include assays using membranes isolated from cells not expressing ChemerinR (mock-transfected), in order to exclude possible non-specific effects of the candidate compound.
ChemerinR-expres sing clones have been obtained by transfection of CHO-K1 cells to coexpressing mitochondrial apoaequorin and Gα16, limiting dilution and selection by northern blotting. Positive clones were used for screening with human ovarian cancer ascites extracts prepared as described above. […] Briefly, cells were collected from plates in PBS containing 5 mM EDTA, pelleted and resuspended at 5×10^6 cells/ml in DMEM-F12 medium. Cells were incubated with 5 μM Coelenterazine H (Molecular Probes) for 4 hours at room temperature. Cells were then washed in DMEM-F12 medium and resuspended at a concentration of 0.5×10^6 cells/ml. Cells were then mixed with test agonist peptides or plates containing tissue extracts and the light emission was recorded for 30 sec using a Microlumat luminometer (Perkin Elmer). Results are expressed as Relative Light Units (RLU).
`C[C@H](NC(=O)[C@H](Cc1ccccc1)NC(=O)[C@H](CCC(N)=O)NC(=O)CNC(=O)[C@@H]1CCCN1C(=O)[C@H](Cc1ccccc1)NC(=O)[C@H](Cc1ccc(O)cc1)NC(=O)[C@H](Cc1ccccc1)NC(=O)[C@H](CO)NC(=O)[C@H](Cc1c[nH]cn1)NC(=O)[C@@H]1CCCN1C(=O)[C@H](CC(=O)O)NC(=O)[C@H](CCC(=O)O)NC(=O)CNC(=O)[C@H](C)NC(=O)[C@H](CCCNC(=N)N)NC(=O)[C@@H](N)CCC(N)=O)C(=O)N[C@@H](Cc1ccccc1)C(=O)O` [Human [ΔSer19] Chemerin-19] (H-QRAGEDPHSFYFPGQFAF-OH; N-terminus and C-terminus assumed) gave an EC50 of 0.097 ± 0.013 µM. `C[C@H](NC(=O)[C@H](Cc1ccccc1)NC(=O)[C@H](CCC(N)=O)NC(=O)CNC(=O)[C@@H]1CCCN1C(=O)[C@H](Cc1ccccc1)NC(=O)[C@H](Cc1ccc(O)cc1)NC(=O)[C@H](Cc1ccccc1)NC(=O)[C@H](CO)NC(=O)[C@H](Cc1c[nH]cn1)NC(=O)[C@@H]1CCCN1C(=O)[C@H](CC(=O)O)NC(=O)[C@H](CCC(=O)O)NC(=O)CNC(=O)[C@H](C)NC(=O)[C@H](CCCNC(=N)N)NC(=O)[C@@H](N)CCC(N)=O)C(=O)O` [Human [ΔPhe18Ser19] Chemerin-19] (H-QRAGEDPHSFYFPGQFA-OH; N-terminus and C-terminus assumed) was tested, and the EC50 was 220 µM. For `C[C@H](NC(=O)[C@H](Cc1ccccc1)NC(=O)[C@H](CCC(N)=O)NC(=O)CNC(=O)[C@@H]1CCCN1C(=O)[C@H](Cc1ccccc1)NC(=O)[C@H](Cc1ccc(O)cc1)NC(=O)[C@H](Cc1ccccc1)NC(=O)[C@H](CO)NC(=O)[C@@H](N)Cc1c[nH]cn1)C(=O)N[C@@H](Cc1ccccc1)C(=O)N[C@@H](CO)C(=O)O` [Human Chemerin-12] (H-HSFYFPGQFAFS-OH; N-terminus and C-terminus assumed), the EC50 was 0.0122 ± 0.0034 µM. `C[C@H](NC(=O)[C@H](CCCNC(=N)N)NC(=O)[C@@H](N)CCC(N)=O)C(=O)NCC(=O)N[C@@H](CCC(=O)O)C(=O)N[C@@H](CC(=O)O)C(=O)N1CCC[C@H]1C(=O)N[C@@H](Cc1c[nH]cn1)C(=O)N[C@@H](CO)C(=O)N[C@@H](Cc1ccccc1)C(=O)N[C@@H](Cc1ccc(O)cc1)C(=O)N[C@@H](Cc1ccccc1)C(=O)N1CCC[C@H]1C(=O)NCC(=O)N[C@@H](CCC(N)=O)C(=O)N[C@@H](Cc1ccccc1)C(=O)O` [Human [ΔAla17Phe18Ser19] Chemerin-19] (H-QRAGEDPHSFYFPGQF-OH) was tested, and the EC50 was 130 ± 10 µM. For `C[C@H](N)C(=O)N[C@@H](Cc1ccccc1)C(=O)N1CCC[C@H]1C(=O)NCC(=O)N[C@@H](CCC(N)=O)C(=O)N[C@@H](Cc1ccccc1)C(=O)N[C@@H](C)C(=O)N[C@@H](Cc1ccccc1)C(=O)N[C@@H](CO)C(=O)O` [Human [Ala-1] Chemerin-9] (H-AFPGQFAFS-OH; N-terminus and C-terminus assumed), the EC50 was 0.496 ± 0.08 µM. `C[C@H](NC(=O)[C@H](Cc1ccccc1)NC(=O)[C@H](CCC(N)=O)NC(=O)CNC(=O)[C@@H]1CCCN1C(=O)[C@H](Cc1ccccc1)NC(=O)[C@H](Cc1ccc(O)cc1)NC(=O)[C@H](Cc1ccccc1)NC(=O)[C@H](CO)NC(=O)[C@H](Cc1c[nH]cn1)NC(=O)[C@@H]1CCCN1C(=O)[C@H](CC(=O)O)NC(=O)[C@H](CCC(=O)O)NC(=O)CNC(=O)[C@H](C)NC(=O)[C@H](CCCNC(=N)N)NC(=O)[C@@H](N)CCC(N)=O)C(=O)N[C@@H](Cc1ccccc1)C(=O)N[C@@H](CO)C(=O)O` [Human Chemerin-19] (H-QRAGEDPHSFYFPGQFAFS-OH) was tested, and the EC50 was 0.0167 ± 0.0032 µM. For `C[C@H](NC(=O)[C@H](Cc1ccccc1)NC(=O)[C@H](CCC(N)=O)NC(=O)CNC(=O)[C@@H]1CCCN1C(=O)[C@H](Cc1ccccc1)NC(=O)[C@H](Cc1ccc(O)cc1)NC(=O)[C@H](Cc1ccccc1)NC(=O)[C@H](CO)NC(=O)[C@H](Cc1c[nH]cn1)NC(=O)[C@@H]1CCCN1C(=O)[C@H](CC(=O)O)NC(=O)[C@H](CCC(=O)O)NC(=O)CNC(=O)[C@H](C)NC(=O)[C@H](CCCNC(=N)N)NC(=O)[C@@H](N)CCC(N)=O)C(=O)N[C@@H](Cc1ccccc1)C(=O)N[C@@H](CO)C(=O)N[C@@H](CCCCN)C(=O)O` [Human [Lys20] Chemerin-19] (H-QRAGEDPHSFYFPGQFAFSK-OH), the EC50 was 170 µM. Molecule `C[C@H](NC(=O)[C@H](Cc1ccccc1)NC(=O)[C@H](CCC(N)=O)NC(=O)CNC(=O)[C@@H]1CCCN1C(=O)[C@H](Cc1ccccc1)NC(=O)[C@H](Cc1ccc(O)cc1)NC(=O)[C@@H](N)Cc1ccccc1)C(=O)N[C@@H](Cc1ccccc1)C(=O)N[C@@H](CO)C(=O)O` [Human Chemerin-10] (H-FYFPGQFAFS-OH; N-terminus and C-terminus assumed) has an EC50 of 0.0082 ± 0.002 µM. Work on `C[C@H](NC(=O)[C@H](Cc1ccccc1)NC(=O)[C@H](CCC(N)=O)NC(=O)CNC(=O)[C@@H]1CCCN1C(=O)[C@H](Cc1ccccc1)NC(=O)[C@H](Cc1ccc(O)cc1)NC(=O)[C@H](Cc1ccccc1)NC(=O)[C@H](CO)NC(=O)[C@H](Cc1c[nH]cn1)NC(=O)[C@@H]1CCCN1)C(=O)N[C@@H](Cc1ccccc1)C(=O)N[C@@H](CO)C(=O)O` [Human Chemerin-13] (H-PHSFYFPGQFAFS-OH) yielded an EC50 of 0.014 µM. With `C[C@H](NC(=O)[C@H](Cc1ccccc1)NC(=O)[C@H](CCC(N)=O)NC(=O)CNC(=O)[C@@H]1CCCN1C(=O)[C@@H](N)Cc1ccccc1)C(=O)N[C@@H](Cc1ccccc1)C(=O)N[C@@H](CO)C(=O)O` [Human Chemerin-8] (H-FPGQFAFS-OH; N-terminus and C-terminus assumed) the EC50 was 2 ± 1 µM. `C[C@H](NC(=O)[C@H](Cc1ccccc1)NC(=O)[C@H](CCC(N)=O)NC(=O)CNC(=O)[C@@H]1CCCN1)C(=O)N[C@@H](Cc1ccccc1)C(=O)N[C@@H](CO)C(=O)O` [Human Chemerin-7, PGQFAFS] (H-PGQFAFS-OH) gave an EC50 of 220 ± 100 µM.

Same assay, conditions: CHO cells expressing ChemerinR, aequorin assay; read-out: EC50 for activation of ChemerinR
Molecule B1 has an EC50 of 0.00427 µM.

Same assay, conditions: result in words
QRAGEDPHSFYFPGQ was tested, and the “Mean EC50” value was “inactif”.

Same assay, conditions: truncated Chemerin peptides, values given in μM; read-out: Mean EC50
Molecule `C[C@H](NC(=O)[C@H](C)NC(=O)[C@H](CCC(N)=O)NC(=O)CNC(=O)[C@@H]1CCCN1C(=O)[C@H](Cc1ccccc1)NC(=O)[C@@H](N)Cc1ccc(O)cc1)C(=O)N[C@@H](Cc1ccccc1)C(=O)N[C@@H](CO)C(=O)O` [Human [Ala-6] Chemerin-9] (H-YFPGQAAFS-OH; N-terminus and C-terminus assumed) has an EC50 of 5 ± 1 µM. `C[C@H](NC(=O)[C@H](C)NC(=O)[C@H](Cc1ccccc1)NC(=O)[C@H](CCC(N)=O)NC(=O)CNC(=O)[C@@H]1CCCN1C(=O)[C@H](Cc1ccccc1)NC(=O)[C@@H](N)Cc1ccc(O)cc1)C(=O)N[C@@H](CO)C(=O)O` [Human [Ala-8] Chemerin-9] (H-YFPGQFAAS-OH; N-terminus and C-terminus assumed) showed an EC50 of 38 ± 7 µM. Molecule `CC(C)C[C@H](NC(=O)[C@H](C)NC(=O)[C@H](CCCCN)NC(=O)[C@H](CO)NC(=O)[C@H](Cc1ccccc1)NC(=O)[C@H](C)NC(=O)[C@H](Cc1ccccc1)NC(=O)[C@H](CCC(N)=O)NC(=O)CNC(=O)[C@@H]1CCCN1C(=O)[C@H](Cc1ccccc1)NC(=O)[C@H](Cc1ccc(O)cc1)NC(=O)[C@H](Cc1ccccc1)NC(=O)[C@H](CO)NC(=O)[C@H](Cc1c[nH]cn1)NC(=O)[C@@H]1CCCN1C(=O)[C@H](CC(=O)O)NC(=O)[C@H](CCC(=O)O)NC(=O)CNC(=O)[C@H](C)NC(=O)[C@H](CCCNC(=N)N)NC(=O)[C@@H](N)CCC(N)=O)C(=O)N1CCC[C@H]1C(=O)N[C@@H](CCCNC(=N)N)C(=O)N[C@@H](CO)C(=O)O` [Human prochemerin-25] (H-QRAGEDPHSFYFPGQFAFSKALPRS-OH; N-terminus and C-terminus assumed) has an EC50 of 160 ± 21 µM.

Same assay, conditions: truncated Chemerin peptides, values in nM; read-out: Mean EC50
`C[C@H](NC(=O)[C@H](Cc1ccccc1)NC(=O)[C@H](CCC(N)=O)NC(=O)CNC(=O)[C@@H]1CCCN1C(=O)[C@H](C)NC(=O)[C@@H](N)Cc1ccc(O)cc1)C(=O)N[C@@H](Cc1ccccc1)C(=O)N[C@@H](CO)C(=O)O` [Human [Ala-2] Chemerin-9] (H-YAPGQFAFS-OH; N-terminus and C-terminus assumed) showed an EC50 of 0.155 ± 0.0416 µM.
